PMC9270327 (Communications Biology, 2022)
Counter-ions that a name gives are not always drawn. Like-named read-outs stand apart in the source and are kept apart here.

Key:
[1] = molecular target: T1, recombinant human matriptase (Homo sapiens, UniProt Q9Y5Y6); experiment: Enzyme inhibition assay with purified matriptase (Ki, dose-response); type: biochemical; conditions: for matriptase activity, Mean (Fig. 2b): normalized, 0 nM = 100
T1 construct: purchased R&D Systems (Minneapolis, MN, USA)
T1 sequence (Q9Y5Y6 1-855): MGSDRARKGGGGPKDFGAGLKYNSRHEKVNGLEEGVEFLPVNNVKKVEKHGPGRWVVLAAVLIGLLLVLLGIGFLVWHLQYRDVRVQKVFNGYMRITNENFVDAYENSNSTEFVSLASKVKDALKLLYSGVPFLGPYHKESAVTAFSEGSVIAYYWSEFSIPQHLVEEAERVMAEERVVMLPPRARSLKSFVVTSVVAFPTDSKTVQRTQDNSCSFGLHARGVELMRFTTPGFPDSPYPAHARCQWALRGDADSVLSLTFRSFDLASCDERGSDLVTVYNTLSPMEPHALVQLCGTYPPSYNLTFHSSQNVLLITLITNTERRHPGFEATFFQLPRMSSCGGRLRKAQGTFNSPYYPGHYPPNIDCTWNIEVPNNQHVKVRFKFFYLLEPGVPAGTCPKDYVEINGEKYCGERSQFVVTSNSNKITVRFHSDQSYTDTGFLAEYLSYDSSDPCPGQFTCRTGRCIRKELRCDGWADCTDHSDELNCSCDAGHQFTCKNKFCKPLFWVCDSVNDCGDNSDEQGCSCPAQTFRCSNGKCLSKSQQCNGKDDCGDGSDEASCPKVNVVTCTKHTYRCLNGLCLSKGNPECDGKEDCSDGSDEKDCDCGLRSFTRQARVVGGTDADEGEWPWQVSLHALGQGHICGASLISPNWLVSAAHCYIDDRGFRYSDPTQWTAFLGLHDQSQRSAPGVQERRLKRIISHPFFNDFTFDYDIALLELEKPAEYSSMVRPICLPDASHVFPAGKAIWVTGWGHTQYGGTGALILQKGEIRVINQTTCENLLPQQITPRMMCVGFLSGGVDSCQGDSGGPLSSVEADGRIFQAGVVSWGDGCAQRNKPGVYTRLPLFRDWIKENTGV

[2] = molecular target: T2, factor Xa (Homo sapiens, UniProt P00742); experiment: Enzyme inhibition assay with purified factor Xa (Ki, dose-response); type: biochemical; conditions: for factor Xa activity, Mean (Fig. 2d): normalized
T2 construct: purchased Bio-Techne GmbH (Wiesbaden, Germany)
Text: (§1) Recombinant human TMPRSS2 was purchased from Creative BioMart (New York, USA) or LSBio (Seattle, USA), factor Xa was obtained from Bio-Techne GmbH (Wiesbaden, Germany). Recombinant human thrombin and matriptase protein were purchased from R&D Systems (Minneapolis, MN, USA).

[3] = molecular target: T3, TMPRSS2 expressed in HEK293T cells (Homo sapiens, UniProt O15393); experiment: Inhibition of cellular TMPRSS2 activity on HEK293T cells transiently expressing TMPRSS2; type: cell-based; conditions: 2 h, corrected for mock-transfected cells
T3 construct: host or cells: HEK293T (ATCC)
Method: In total, 10,000 Caco-2 cells (ATCC) in 100 µL EMEM medium supplemented with 10% FBS, 100 U/mL penicillin, […] streptomycin, and 2 mM glutamine (all Invitrogen, Germany) were seeded per well in a 96-well plate and incubated at 37 °C for 4 days until full confluency of the cells. The cells were washed two times with PBS and EMEM medium without FBS was added. […] The fluorescence intensity was measured as described above. In all, 20,000 HEK293T cells (ATCC) were seeded in 100 µL DMEM supplemented with 10% FBS, 100 U/mL penicillin, […] streptomycin, and 2 mM glutamine. […] […] […] Fluorescence intensity was measured after 2 h at 37 °C as described above.

[4] = molecular target: cellular TMPRSS2 activity, Caco-2 cells (Homo sapiens, UniProt O15393); conditions: normalized, 0 nM = 100
Method: In total, 10,000 Caco-2 cells (ATCC) in 100 µL EMEM medium supplemented with 10% FBS, 100 U/mL penicillin, […] streptomycin, and 2 mM glutamine (all Invitrogen, Germany) were seeded per well in a 96-well plate and incubated at 37 °C for 4 days until full confluency of the cells. The cells were washed two times with PBS and EMEM medium without FBS was added. […] The fluorescence intensity was measured as described above. In all, 20,000 HEK293T cells (ATCC) were seeded in 100 µL DMEM supplemented with 10% FBS, 100 U/mL penicillin, […] streptomycin, and 2 mM glutamine. […] After 14 h, transfection mix was removed from the cells and 80 µL fresh medium without FBS and 10 µL inhibitors were added (final concentration 50 µM). […] Fluorescence intensity was measured after 2 h at 37 °C as described above.

[5] = tested on: SARS-CoV-2 Beta (B.1.351), Caco-2 cells; type: cell-based
[6] = molecular target: T4, recombinant human thrombin (Homo sapiens, UniProt P00734); experiment: Enzyme inhibition assay with purified thrombin (Ki, dose-response); type: biochemical; conditions: normalized
T4 construct: purchased R&D Systems (Minneapolis, MN, USA)
Text: as §1

T3 sequence (O15393 whole entry): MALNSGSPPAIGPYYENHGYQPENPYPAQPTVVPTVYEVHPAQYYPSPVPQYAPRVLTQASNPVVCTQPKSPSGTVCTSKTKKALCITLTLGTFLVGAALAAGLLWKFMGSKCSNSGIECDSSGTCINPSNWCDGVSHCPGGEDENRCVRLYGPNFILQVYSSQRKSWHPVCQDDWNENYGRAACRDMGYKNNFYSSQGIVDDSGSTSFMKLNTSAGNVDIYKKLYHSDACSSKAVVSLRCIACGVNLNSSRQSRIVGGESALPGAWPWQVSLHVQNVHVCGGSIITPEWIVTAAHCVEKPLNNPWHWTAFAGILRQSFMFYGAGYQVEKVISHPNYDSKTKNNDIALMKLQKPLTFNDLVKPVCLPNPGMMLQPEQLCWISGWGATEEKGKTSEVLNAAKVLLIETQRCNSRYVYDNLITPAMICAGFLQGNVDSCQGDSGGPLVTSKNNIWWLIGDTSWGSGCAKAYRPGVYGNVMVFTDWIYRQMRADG
cellular TMPRSS2 activity, Caco-2 cells, sequence (O15393 whole entry): as above
T2 sequence (P00742 235-488 limits assumed): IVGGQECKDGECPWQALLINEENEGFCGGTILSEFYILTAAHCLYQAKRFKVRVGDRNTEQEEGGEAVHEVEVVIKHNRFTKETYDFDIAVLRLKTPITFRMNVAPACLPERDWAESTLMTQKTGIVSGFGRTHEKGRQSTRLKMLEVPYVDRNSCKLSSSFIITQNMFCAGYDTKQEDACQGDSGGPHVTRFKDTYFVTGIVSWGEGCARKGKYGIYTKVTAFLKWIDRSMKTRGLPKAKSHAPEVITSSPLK
T2 sequence (P00742 41-179 partner limits assumed): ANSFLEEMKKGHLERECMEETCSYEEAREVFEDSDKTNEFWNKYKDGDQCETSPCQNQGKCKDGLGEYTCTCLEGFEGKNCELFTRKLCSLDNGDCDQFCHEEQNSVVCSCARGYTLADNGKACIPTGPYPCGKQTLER

With CN(C)C(=O)COC(=O)Cc1ccc(OC(=O)c2ccc(NC(=N)N)cc2)cc1 [CM, camostat mesylate, reference compound] the “matriptase activity, Mean (Fig. 2b)” value ([1]; 0.05 nM) was 100.491, the “matriptase activity, Mean (Fig. 2b)” value ([1]; 0.1 nM) was 98.1997 and the “matriptase activity, Mean (Fig. 2b)” value ([1]; 0.2 nM) was 86.1702. For the same compound, the “matriptase activity, Mean (Fig. 2b)” value ([1]; 1 nM) was 58.838, the “matriptase activity, Mean (Fig. 2b)” value ([1]; 10 nM) was 4.828 and the “matriptase activity, Mean (Fig. 2b)” value ([1]; 1000 nM) was 0.2455. The “matriptase activity, Mean (Fig. 2b)” value ([1]; 50000 nM) was 0.08183, the “matriptase activity, Mean (Fig. 2b)” value ([1]; 500000 nM) was 0.1637 and the Ki ([1]; 30 min preincubation, substrate Boc-Gln-Ala-Arg-AMC) was 0.0006 µM. The “factor Xa activity, Mean (Fig. 2d)” value ([2]; 0.04 nM, 0 nM = 100) was 85.6127, the “factor Xa activity, Mean (Fig. 2d)” value ([2]; 0.2 nM, 0 nM = 100) was 89.6222 and the “factor Xa activity, Mean (Fig. 2d)” value ([2]; 2 nM, 0 nM = 100) was 92.4525. The “factor Xa activity, Mean (Fig. 2d)” value ([2]; 20 nM, 0 nM = 100) was 96.9338, the “factor Xa activity, Mean (Fig. 2d)” value ([2]; 200 nM, 0 nM = 100) was 78.0652 and the “factor Xa activity, Mean (Fig. 2d)” value ([2]; 1000 nM) was 72.1688. The “factor Xa activity, Mean (Fig. 2d)” value ([2]; 10000 nM, 0 nM = 100) was 33.4905, the “factor Xa activity, Mean (Fig. 2d)” value ([2]; 100000 nM, 0 nM = 100) was 14.8585 and the Ki ([2]; 30 min preincubation, substrate Bz-Ile-Glu-Gly-Arg-pNA) was 1.79 µM. The “normalized fluorescence intensity, HEK293T TMPRSS2, Mean (Fig. 4b)” value (“normalized fluorescence intensity” for short) ([3]; 0.5 nM) was 47.42, the “normalized fluorescence intensity” value ([3]; 5 nM) was 43.185 and the “normalized fluorescence intensity” value ([3]; 50 nM) was 9.45. For the same compound, the “normalized fluorescence intensity” value ([3]; 500 nM) was 8.435, the “normalized fluorescence intensity” value ([3]; 5000 nM) was 0.32 and the “normalized fluorescence intensity” value ([3]; 50000 nM) was -3.52. The “cellular protease activity on Caco-2 cells, Mean (Fig. 4a)” value (from here on “cellular protease activity”) ([4]; 0.1 nM) was 103.704, the “cellular protease activity” value ([4]; 1 nM) was 98.7654 and the “cellular protease activity” value ([4]; 10 nM) was 63.4921. The “cellular protease activity” value ([4]; 100 nM) was 38.9771, the “cellular protease activity” value ([4]; 1000 nM) was 21.8695 and the “cellular protease activity” value ([4]; 10000 nM) was 6.173. The “cellular protease activity” value ([4]; 100000 nM) was 1.764, the IC50 ([5]; read-out: IC50 SARS-CoV-2 Beta) was 9.31 µM and the IC50 ([5]; read-out: IC50 SARS-CoV-2 Beta (text)) was 9.3 µM. The “thrombin activity, Mean (Fig. 2c)” value ([6]; 0.01 nM) was 98.2939, the “thrombin activity, Mean (Fig. 2c)” value ([6]; 0.02 nM, 0 nM = 100) was 99.8688 and the “thrombin activity, Mean (Fig. 2c)” value ([6]; 0.04 nM, 0 nM = 100) was 100.525. For the same compound, the “thrombin activity, Mean (Fig. 2c)” value ([6]; 0.2 nM, 0 nM = 100) was 103.675, the “thrombin activity, Mean (Fig. 2c)” value ([6]; 2 nM, 0 nM = 100) was 103.806 and the “thrombin activity, Mean (Fig. 2c)” value ([6]; 20 nM, 0 nM = 100) was 105.906. For the same compound, the “thrombin activity, Mean (Fig. 2c)” value ([6]; 10000 nM, 0 nM = 100) was 73.8845 and the “thrombin activity, Mean (Fig. 2c)” value ([6]; 100000 nM, 0 nM = 100) was 23.2283.
